# Tests used:
# [1] = system: Bone marrow and cord blood CD34+ progenitor cells; experiment: Differentiation of CD34+ progenitor cells into dendritic cells, cell surface phenotype by flow cytometry; assay type: cell-based, human; design: key to Cell Population CD15+ / Cell Population CD34+ CD38− / Cell Population CD34− CD38+ / Cell Population CD1a+ CD14− / Cell Population CD1a− CD14+: ↑: up arrow indicates an increase in the cell population; ↓: down arrow indicates a decrease
# Method: Bone marrow and cord blood CD34^+ progenitor cells were obtained from Clonetics and cultured in Iscove's MDM with BIT 95000 (StemCell Technologies) in the presence of SCF, Flt-3L, GM-CSF and TNF-α for 6 days, and then in the presence of GM-CSF and TNF-α for 6 additional days.
# Analysis of cell surface phenotype: Cells were processed for double staining (30 min at 4° C.) at day 6 and day 12 using FITC and PE conjugated mAbs. Antibodies used were from BD Pharmingen: CD34 (PE), CD38 (FITC), CD33 (FITC), CD1a (FITC), CD86 (PE), CD14 (PE), CD83 (PE), CD54 (PE), CD11b (PE), CD11c (PE), HLA-DR (PE), CD15 (FITC), and CD133 (PE) from Miltenyi. Fluorescence analysis was performed on a FACScan flow cytometer after acquisition of 10,000 events (Coulter). Results presented are representative of four independent experiments.
# The methodology described above, i.e., the examination of the effect of IMiDs such as ACTIMID™ on the differentiation on early progenitor cells, such as CD34^+ cells, can be applied to any compound of interest, the effect of which on differentiation is desired to be known. As an example of the extension of this assay method to other compounds, we compared the effect of retinoic acid (ATRA) and aspirin to that of ACTIMID™ on the differentiation of CD34^+ cells toward the DC lineage versus the control (DMSO-treated) cells. Retinoic acid was studied because of its known effect on cellular proliferation and differentiation, its therapeutic use in some cancer, and its known teratogenic effect. Conversely, we studied the effect of aspirin because it is a commonly-used anti-inflammatory drug with no immunomodulatory properties. The results at day 6 of CD34^+ progenitors cells cultured in the presence of SCF, Flt-3L, GM-CSF and TNF-α, with or without compound for a period of 6 days, are presented below in Table 2 (up arrow indicates an increase in the cell population; down arrow indicates a decrease).
# [2] = system: Murine Sca+Lin− hematopoietic progenitor cells; experiment: Generation of murine dendritic cells from bone marrow Sca+Lin− progenitors, cell surface phenotype; assay type: cell-based, mouse (C57BL/6)
# Excerpt: Mouse bone marrow from inbred C57BL/6 mice was obtained from Clonetics. Hematopoietic Sca+Lin− progenitors were enriched using SpinSep murine progenitor enrichment cocktail (StemCell Technologies) and cultured in Iscove's MDM with BIT 95000 (StemCell Technologies) in the presence of murine growth factors SCF, Flt3L, GM-CSF and M-CSF for 9 days, to promote expansion of Sca+ cells and a DC precursor phenotype and then in the presence of GM-CSF and TNF-α for 3 additional days to drive the cells to an immature DC phenotype. Enriched Sca+Lin− cells were cultured in the presence of DMSO (0.1%), ACTIMID™ at 10 μM or all-trans retinoic acid (ATRA) (ICN Biomedicals) at 10 μM from day 0. Compounds were added to cells at day 0 and day 9.
# Analysis of Murine cell surface phenotype: Murine cells were processed for double staining (14 min at RT) at day 9 and day 12; using FITC and PE conjugated mAbs. Antibodies used were from BD Pharmingen: Sea (PE), CD11b (FITC), Gr-1 (FITC), CD86 (PE), CD14 (PE), CD80 (PE), I-A^b (PE), CD40 (PE) and CD32.1/16.1 (FITC) from Miltenyi. Fluorescence analysis was performed on a FACScan flow cytometer (Coulter) after acquisition of 10,000 events.
# [3] = Day 12, compound from day 6 to day 12
# [4] = day 6, SCF, Flt-3L, GM-CSF and TNF-α, versus DMSO-treated control
# [5] = 10 μM, added at day 0 and day 9
smiles,measurement,setting,value
"Nc1cccc2c1C(=O)N(C1CCC(=O)NC1=O)C2=O (stereo not drawn) [ACTIMID™, 4-(Amino)-2-(2,6-dioxo(3-piperidyl))-isoindoline-1,3-dione]",toxic effects on CD34+ cells,[1],no toxic effects
same,CD34+CD38− population,"[1]; 1 μM, day 1 to day 12",increased
same,acquisition of the DC phenotype,"[1]; 1 μM, day 1 to day 12",inhibited
same,"expression of co-stimulatory molecules (CD86, CD80) at day 12","[1]; 1 μM, day 1 to day 12",decreased expression
same,expression of the CD54bright population,"[1]; 1 μM, day 12",decreased expression
same,expression of the CD54dim population,"[1]; 1 μM, day 12",increased expression
same,generation of CD14+CD1a− cells,"[1]; 1 μM, from day 1",decreased
same,generation of CD1a+ cells at day 6,"[1]; 1 μM, from day 1, particularly CD86+CD1a+ cells",almost completely prevented
same,expression of the CD15 surface molecule (granulocytic marker),"[1]; 12 days in the presence of compound, FIG. 22",increased
same,cells' ability to proliferate,[1]; CD34+ cells,not to impair
same,CD1a+,[1]; [3],11.5%
same,CD14+,[1]; [3],8.0%
same,CD80+,[1]; [3],13.8%
same,CD86+,[1]; [3],18.5%
same,CD11c+CD15− population,[1]; FIG. 19B,decrease
same,CD11c−CD15+ granulocytic population,[1]; FIG. 19B,increase
same,Cell Population CD1a+ CD14−,[1]; [4],↓
same,Cell Population CD1a− CD14+,[1]; [4],↓
same,Cell Population CD15+,[1]; [4],↑
same,Cell Population CD34+ CD38−,[1]; [4],↑
same,Cell Population CD34− CD38+,[1]; [4],↓
same,concentration at which increase in CD34+CD38− cells and block in myeloid DC progenitors reached a maximum,"[1]; dose dependant, day 0 to day 6, FIG. 17",1 µM
same,culture time with compound needed for interference with the CD34 differentiation pathway,"[1]; effect reversible, FIG. 18",at least 3 days
same,expression of CD133,[1]; multiple doses,increases
same,increase in the CD34+ population,[1]; multiple doses between days 0 and 6,intensified the increase
same,expression of HLA-DR molecules,"[1]; treated CD34+ progenitors, day 12",reduced
same,cell surface marker expression by day 9,[2]; 10 μM from day 0,no significant effect
same,CD11b expression by day 12,[2]; [5],upregulation
same,CD86 and bright I-A^b expression by day 12,[2]; [5],downregulation
same,expression of CD40 and CD80,"[2]; 10 μM, not shown",no effects
